# Assay results reported in patent publication US20260224577A1, “METHODS OF TREATING HEART FAILURE WITH VIBEGRON” (SUMITOMO PHARMA CO., LTD., priority 2021, published 2026).
# Key:
# β2-adrenergic receptor = target: T1, β2-adrenergic receptor (Homo sapiens, UniProt P07550); experiment: Functional cellular cAMP (HTRF) assay, CHO cells expressing β2-ARs; format: cell-based; conditions: relative to procaterol
# T1 construct: expressed in transfected cells; host or cells: CHO
# Experimental: The potency and maximal effect of vibegron and mirabegron for β3-adrenergic receptors and the selectivity for each […] receptor were determined. Functional cellular assays for vibegron and mirabegron activity were performed using Chinese hamster ovary (CHO) cells expressing β1- or β2-ARs and human embryonic kidney (HEK) 293 cells expressing β3-ARs. Cells were incubated with vibegron, mirabegron, or the appropriate control (isoproterenol for β1 and β3, procaterol for β2). Responses were quantified using homogeneous time-resolved fluorescence of cyclic adenosine monophosphate. Half-maximal effective concentration (EC50) and maximum response (Emax) values were determined by nonlinear least-squares regression analysis.
# [1] = test system: mice with induced myocardial infarction; experiment: Post-MI chronic heart failure in mice, echocardiography; format: in vivo
# Text: The purpose of this experiment is to study the effect of vibegron on structural remodeling (e.g., hypertrophy and/or fibrosis) and functional remodeling (e.g, ventricular function) in mice with chronic HF after a myocardial infarction (MI). The specific aims of these studies will be to determine the dose response treatment effects on cardiac remodeling by measuring parameters of cardiac structure and function using non-invasive, invasive, morphological, and histological assessments of mice after MI.
# Myocardial infarction in the mouse is a commonly used experimental model for chronic ischemic heart failure. Due to complete ligation of the left anterior descending coronary artery, there is a large left ventricular infarct that produces adverse LV remodeling and significant dysfunction within 2 weeks post-MI. There also is significant fibrosis in this model and it is robust and reproducible with low mortality due to the surgical procedure. This model has been used for over 2 decades (see, e.g., Gao, E. et al., Circulation Research, 2010; 107: 1445-1453) and has been used to test potential novel HF therapeutics (Schumacher, S. et al. Science Translational Medicine, 2015; 7: 277).
# Myocardial infarction was induced in 10-12 week C57B/6 wild-type mice and after 2 weeks echo cardiograms were used to assess the MI severity in each mouse. Mice were randomized for treatment based on similarity and severity of the induced infarct. The mice were started with either vibegron or vehicle (1-3 doses) administered by continuous infusion using 2 week minipumps (Azlet Corp.) that were filled with the appropriate dose and implanted subcutaneously on the back of each animal in the region of the scapula. The minipumps were replaced with new minipumps in the same location at the 2 week time point and dosed for 4 weeks in total. Cardiac function was assessed by echocardiography (Echo) at 0, 2, 4, and 6 weeks. Some mice were subjected to terminal catheterization to measure hemodynamic pressures and adrenergic responsiveness.
# Sham surgery groups treated with vehicle and highest dose of vibegron were included as controls. One group of post-MI mice treated with vehicle was also included in the study as a control. Two groupings of the 6 conditions were tested to allow for multiple replicates. There were 7 to 8 mice per condition in each group. The 2 groups studied were staggered by 3-4 weeks.
# At this point, 6 experimental conditions (A-F below)×2 groups (staggered for reproducibility) were tested. Vibegron was provided in a form dissolved and delivered via an osmotic minipump placed under the skin of the mouse. The vehicle was used for negative control animals. Three (3) doses of vibegron (low, medium and high) were tested.
# • A. Sham—vehicle • B. Sham—vibegron (high dose) • C. MI—vehicle • D. MI—vibegron—low dose • E. MI—vibegron—medium dose • F. MI—vibegron—high dose Group 2 (7 or 8 Mice Per Group) Repeated 3-4 Weeks after Group 1 • A. Sham—vehicle • B. Sham—vibegron (high dose) • C. MI—vehicle • D. MI—vibegron—low dose • E. MI—vibegron—medium dose • F. MI—vibegron—high dose
# • 1. Day 0 (after 1-2 weeks acclimation)—pre-surgery Echo • 2. Perform LAD Ligation (MI) or Sham procedure • 3. Day 14—Echo and randomly assign groups • 4. Day 14—begin administration of vehicle and drug for 4 weeks • 5. Day 28—Echo (operator blinded to groups)—change pumps for another 2 week dosing • 6. Day 42—Echo (operator blinded to groups) • 7. Day 42—Some were used for hemodynamics and ISO dose response and all animals sacrificed. Some were used for histology and some for RNA/Protein analysis. Blood was also collected at the time of sacrifice to determine serum concentrations.
# Surgical Methods: As described in Gao, E. et al., Circulation Research, 2010; 107: 1445-1453 and Schumacher, S. et al. Science Translational Medicine, 2015; 7: 277, mice were anesthetized and complete ligation of the LAD was performed through a partial thoracotomy.
# [2] = MI mice, high dose (10 mg/kg), Baseline (pre-surgery)
# [3] = MI mice, high dose (10 mg/kg), Week 2 (before start of dosing)
# [4] = MI mice, high dose (10 mg/kg), Week 4 (2 weeks after dosing)
# [5] = MI mice, high dose (10 mg/kg), Week 6 (4 weeks of treatment)
# [6] = MI mice, low dose (1 mg/kg), Baseline (pre-surgery)
# [7] = MI mice, low dose (1 mg/kg), Week 2 (before start of dosing)
# [8] = MI mice, low dose (1 mg/kg), Week 4 (2 weeks after dosing)
# [9] = MI mice, low dose (1 mg/kg), Week 6 (4 weeks of treatment)
# [10] = MI mice, medium dose (3 mg/kg), Baseline (pre-surgery)
# [11] = MI mice, medium dose (3 mg/kg), Week 2 (before start of dosing)
# [12] = MI mice, medium dose (3 mg/kg), Week 4 (2 weeks after dosing)
# [13] = MI mice, medium dose (3 mg/kg), Week 6 (4 weeks of treatment)
# [14] = sham mice, high dose (10 mg/kg), Baseline (pre-surgery)
# [15] = sham mice, high dose (10 mg/kg), Week 2 (before start of dosing)
# [16] = sham mice, high dose (10 mg/kg), Week 4 (2 weeks after dosing)
# [17] = sham mice, high dose (10 mg/kg), Week 6 (4 weeks of treatment)
# T1 sequence (P07550 whole entry): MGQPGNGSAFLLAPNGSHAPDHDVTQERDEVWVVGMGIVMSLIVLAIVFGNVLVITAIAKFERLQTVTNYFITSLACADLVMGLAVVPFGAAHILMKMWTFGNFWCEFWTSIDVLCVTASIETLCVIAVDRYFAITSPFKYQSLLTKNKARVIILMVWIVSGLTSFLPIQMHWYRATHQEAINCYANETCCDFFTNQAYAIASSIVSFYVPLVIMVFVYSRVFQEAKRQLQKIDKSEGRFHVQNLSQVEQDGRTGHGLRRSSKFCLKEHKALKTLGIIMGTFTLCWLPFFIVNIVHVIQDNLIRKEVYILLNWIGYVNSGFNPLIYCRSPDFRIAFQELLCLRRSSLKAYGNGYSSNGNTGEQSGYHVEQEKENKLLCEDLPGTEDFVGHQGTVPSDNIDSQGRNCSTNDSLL
structure (smiles),measurement,setting,value
"O=C(Nc1ccc(C[C@@H]2CC[C@H]([C@H](O)c3ccccc3)N2)cc1)[C@@H]1CCc2nccc(=O)n21 [Vibegron, (6S)—N-[4-[[(2S,5R)-5-[(R)-hydroxy(phenyl)methyl]pyrrolidin-2-yl]methyl]phenyl]-4-oxo-7,8-dihydro-6H-pyrrolo[1,2-a]pyrimidine-6-carboxamide]",β2-adrenergic activity (% Activity),β2-adrenergic receptor,2%
same,Average % Ejection Fraction,[1]; [2],62.06%
same,Average % Fractional Shortening,[1]; [2],32.99%
same,Cardiac Output,[1]; [2],20.56 mL/min
same,Stroke Volume,[1]; [2],43.30 µL
same,Average % Ejection Fraction,[1]; [3],38.39%
same,Average % Fractional Shortening,[1]; [3],18.91%
same,Cardiac Output,[1]; [3],18.93 mL/min
same,Stroke Volume,[1]; [3],40.79 µL
same,Average % Ejection Fraction,[1]; [4],42.59%
same,Average % Fractional Shortening,[1]; [4],21.61%
same,Cardiac Output,[1]; [4],23.29 mL/min
same,Cardiac Output % Improvement Relative to Vehicle,[1]; [4],37.40%
same,Stroke Volume,[1]; [4],46.83 µL
same,Stroke Volume % Improvement Relative to Vehicle,[1]; [4],40.84%
same,Average % Ejection Fraction,[1]; [5],42.68%
same,Average % Fractional Shortening,[1]; [5],21.76%
same,Cardiac Output,[1]; [5],25.09 mL/min
same,Cardiac Output % Improvement Relative to Vehicle,[1]; [5],61.35%
same,Stroke Volume,[1]; [5],47.22 µL
same,Stroke Volume % Improvement Relative to Vehicle,[1]; [5],57.87%
same,Average % Ejection Fraction,[1]; [6],59.50%
same,Average % Fractional Shortening,[1]; [6],31.22%
same,Cardiac Output,[1]; [6],20.00 mL/min
same,Stroke Volume,[1]; [6],42.74 µL
same,Average % Ejection Fraction,[1]; [7],37.52%
same,Average % Fractional Shortening,[1]; [7],18.44%
same,Cardiac Output,[1]; [7],18.06 mL/min
same,Stroke Volume,[1]; [7],39.30 µL
same,Average % Ejection Fraction,[1]; [8],29.77%
same,Average % Fractional Shortening,[1]; [8],14.29%
same,Cardiac Output,[1]; [8],15.45 mL/min
same,Stroke Volume,[1]; [8],32.76 µL
same,Average % Ejection Fraction,[1]; [9],31.64%
same,Average % Fractional Shortening,[1]; [9],15.21%
same,Cardiac Output,[1]; [9],19.19 mL/min
same,Cardiac Output % Improvement Relative to Vehicle,[1]; [9],23.40%
same,Stroke Volume,[1]; [9],37.54 µL
same,Stroke Volume % Improvement Relative to Vehicle,[1]; [9],25.51%
same,Average % Ejection Fraction,[1]; [10],58.11%
same,Average % Fractional Shortening,[1]; [10],30.07%
same,Cardiac Output,[1]; [10],21.05 mL/min
same,Stroke Volume,[1]; [10],44.72 µL
same,Average % Ejection Fraction,[1]; [11],37.18%
same,Average % Fractional Shortening,[1]; [11],18.14%
same,Cardiac Output,[1]; [11],18.94 mL/min
same,Stroke Volume,[1]; [11],40.37 µL
same,Average % Ejection Fraction,[1]; [12],35.95%
same,Average % Fractional Shortening,[1]; [12],17.57%
same,Cardiac Output,[1]; [12],19.51 mL/min
same,Cardiac Output % Improvement Relative to Vehicle,[1]; [12],15.10%
same,Stroke Volume,[1]; [12],39.00 µL
same,Stroke Volume % Improvement Relative to Vehicle,[1]; [12],17.29%
same,Average % Ejection Fraction,[1]; [13],35.55%
same,Average % Fractional Shortening,[1]; [13],17.36%
same,Cardiac Output,[1]; [13],20.90 mL/min
same,Cardiac Output % Improvement Relative to Vehicle,[1]; [13],34.41%
same,Stroke Volume,[1]; [13],41.69 µL
same,Stroke Volume % Improvement Relative to Vehicle,[1]; [13],39.38%
same,Onset of action,"[1]; after initiation of treatment, as shown in the examples",≤ 2 weeks
same,Adverse effects in healthy hearts (echocardiographic function versus baseline),"[1]; sham mice, high dose",no adverse effects
same,Average % Ejection Fraction,[1]; [14],59.04%
same,Average % Fractional Shortening,[1]; [14],30.87%
same,Cardiac Output,[1]; [14],22.09 mL/min
same,Stroke Volume,[1]; [14],42.25 µL
same,Average % Ejection Fraction,[1]; [15],62.36%
same,Average % Fractional Shortening,[1]; [15],33.26%
same,Cardiac Output,[1]; [15],23.72 mL/min
same,Stroke Volume,[1]; [15],45.57 µL
same,Average % Ejection Fraction,[1]; [16],61.08%
same,Average % Fractional Shortening,[1]; [16],32.32%
same,Cardiac Output,[1]; [16],22.53 mL/min
same,Stroke Volume,[1]; [16],44.44 µL
same,Average % Ejection Fraction,[1]; [17],61.18%
same,Average % Fractional Shortening,[1]; [17],32.45%
same,Cardiac Output,[1]; [17],23.63 mL/min
same,Stroke Volume,[1]; [17],45.97 µL
